Measurements: PubChem BioAssay (NCI)
“And” between values parts separate entries of the source, which are not always exact repeats. Equal values may be shown once.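 Compound exposure: 48 hours, 5 concentrations, 96-well plates. Here, GI50 denotes the concentration required for 50% inhibition of growth. TGI: total growth inhibition.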

Tests used:
Experiment in all cases: NCI anticancer screen, dose series, 48 h
[1] = system: 786-0 renal
[2] = system: BT-549 breast
[3] = system: COLO 205 colon
[4] = system: DU-145 prostate
[5] = system: EKVX NSCLC
[6] = system: HCC-2998 colon
[7] = system: HT29 colon
[8] = system: KM20L2 colon
[9] = system: OVCAR-4 ovarian
[10] = system: OVCAR-5 ovarian
[11] = system: SK-OV-3 ovarian
[12] = system: T-47D breast
[13] = system: TK-10 renal
[14] = system: UO-31 renal
[15] = system: A498 renal
[16] = system: A549 NSCLC
[17] = system: ACHN renal
[18] = system: CAKI-1 renal
[19] = system: CCRF-CEM leukemia
[20] = system: HCT-116 colon
[21] = system: HCT-15 colon
[22] = system: HL-60(TB) leukemia
[23] = system: HOP-62 NSCLC
[24] = system: HOP-92 NSCLC
[25] = system: HS 578T breast
[26] = system: IGROV1 ovarian
[27] = system: K-562 leukemia
[28] = system: KM12 colon
[29] = system: LOX IMVI melanoma
[30] = system: M14 melanoma
[31] = system: MALME-3M melanoma
[32] = system: MCF7 breast
[33] = system: MDA-MB-231 breast
[34] = system: MDA-MB-435
[35] = system: MDA-N
[36] = system: MOLT-4 leukemia
[37] = system: NCI-H226 lung
[38] = system: NCI-H23 lung
[39] = system: NCI-H460 lung
[40] = system: NCI-H522 lung
[41] = system: NCI/ADR-RES ovarian
[42] = system: OVCAR-3 ovarian
[43] = system: OVCAR-8 ovarian
[44] = system: PC-3 prostate
[45] = system: RPMI-8226 leukemia
[46] = system: RXF 393 renal
[47] = system: SF-268 CNS
[48] = system: SF-295 CNS
[49] = system: SF-539 CNS
[50] = system: SK-MEL-2 melanoma
[51] = system: SK-MEL-28 melanoma
[52] = system: SK-MEL-5 melanoma
[53] = system: SN12C renal
[54] = system: SNB-19 CNS
[55] = system: SNB-75 CNS
[56] = system: SR leukemia
[57] = system: SW-620 colon
[58] = system: U251 CNS
[59] = system: UACC-257 melanoma
[60] = system: UACC-62 melanoma
[61] = system: DMS 114 small cell lung
[62] = system: DMS 273 small cell lung
[63] = system: M19-MEL melanoma
[64] = system: SNB-78 CNS
[65] = system: DLD-1 colon
[66] = system: HOP-18 NSCLC
[67] = system: LXFL 529 NSCLC

Structure (SMILES): COc1ccc(/C=C/c2cc(OC)c(OC)c(OC)c2)cc1O
- TGI [1]: 15.3 µM
- TGI [2]: 40.7 µM
- TGI [3]: 54.3 µM
- TGI [4]: 38.9 µM
- TGI [5]: 59.3 µM
- TGI [6]: 36.9 µM
- TGI [7]: 24 µM
- TGI [8]: 25.1 µM
- TGI [9]: 71.5 µM
- TGI [10]: 79.5 µM
- TGI [11]: 39.9 µM
- TGI [12]: 45.7 µM
- TGI [13]: 75.1 µM
- TGI [14]: 21 µM

Structure (SMILES): COc1cc2cc(C(=O)N3CC(CCl)c4c3cc(NC(=O)C(C)(C)c3ccccc3[N+](=O)[O-])c3ccccc43)[nH]c2c(OC)c1OC (stereo unspecified)
- TGI [1]: > 600 µM
- GI50 [15]: 59.1 µM
- TGI [16]: > 600 µM
- GI50 [17]: 2.63 µM
- GI50 [2]: 26.1 µM
- TGI [2]: 30.4 µM and 213 µM
- GI50 [18]: 78.5 µM
- GI50 [19]: 51.2 µM
- GI50 [3]: 204 µM
- TGI [4]: 28.2 µM
- GI50 [5]: 127 µM
- TGI [6]: 33.2 µM
- TGI [20]: > 600 µM
- GI50 [21]: 13.2 µM
- GI50 [22]: 37.1 µM
- TGI [23]: 0.862 µM
- GI50 [24]: 222 µM
- GI50 [25]: 270 µM
- GI50 [7]: 14.5 µM
- TGI [7]: 50 µM and 203 µM
- GI50 [26]: 89.6 µM
- GI50 [27]: 17.9 µM
- GI50 [28]: 48.2 µM
- TGI [29]: 6.86 µM
- GI50 [30]: 6.24 µM
- TGI [30]: 9.11 µM and 33.2 µM
- GI50 [31]: 103 µM
- GI50 [32]: 16.1 µM
- GI50 [33]: > 600 µM
- GI50 [34]: 91.7 µM
- GI50 [35]: 76.7 µM
- GI50 [36]: 33.7 µM
- GI50 [37]: 118 µM
- TGI [37]: 50 µM and 281 µM
- GI50 [38]: 8.67 µM
- GI50 [39]: 0.825 µM
- TGI [39]: 1.64 µM and 15.5 µM
- GI50 [40]: 38.4 µM
- GI50 [41]: 11.3 µM
- TGI [42]: 222 µM
- GI50 [9]: 62.1 µM
- GI50 [10]: 119 µM
- GI50 [43]: 6.58 µM
- GI50 [44]: 19.4 µM
- TGI [44]: 35.9 µM and 206 µM
- TGI [45]: > 600 µM
- GI50 [46]: 6.25 µM
- TGI [46]: 5.9 µM and 19.9 µM
- GI50 [47]: 19.5 µM
- GI50 [48]: 19.2 µM
- GI50 [49]: 6.55 µM
- TGI [49]: 14.5 µM and 74.9 µM
- GI50 [50]: 110 µM
- GI50 [51]: 86.7 µM
- GI50 [52]: 11.3 µM
- TGI [52]: 7.81 µM and 35.1 µM
- GI50 [11]: 70 µM
- GI50 [53]: 146 µM
- GI50 [54]: 303 µM
- GI50 [55]: 61.7 µM
- TGI [56]: > 600 µM
- GI50 [57]: 16.9 µM
- GI50 [12]: 61.5 µM
- GI50 [13]: 18.3 µM
- TGI [58]: > 600 µM
- GI50 [59]: 18.9 µM
- TGI [59]: 14.1 µM and 75.6 µM
- GI50 [60]: 25.4 µM
- GI50 [14]: 26.2 µM

Structure (SMILES): CN(C)c1ccc(/C=C/C=C\C2=CC(=C\C=C/C=C3C=CC(=[N+](C)C)C=C3)/Sc3ccccc32)cc1
- TGI [1]: > 100 µM
- TGI [15]: > 100 µM
- TGI [16]: > 100 µM
- TGI [3]: 78.3 µM
- TGI [61]: 24.4 µM
- TGI [62]: > 100 µM
- TGI [5]: > 100 µM
- TGI [20]: > 100 µM
- TGI [21]: > 100 µM
- TGI [22]: > 100 µM
- TGI [23]: > 100 µM
- TGI [7]: > 100 µM
- TGI [27]: > 100 µM
- TGI [28]: > 100 µM
- TGI [8]: > 100 µM
- TGI [29]: 64.1 µM
- TGI [30]: 27.5 µM
- TGI [63]: 35 µM
- TGI [31]: > 100 µM
- TGI [36]: > 100 µM
- TGI [37]: > 100 µM
- TGI [39]: > 100 µM
- TGI [42]: > 100 µM
- TGI [10]: > 100 µM
- TGI [43]: > 100 µM
- TGI [45]: > 100 µM
- TGI [46]: 32.7 µM
- TGI [47]: > 100 µM
- TGI [48]: > 100 µM
- TGI [49]: > 100 µM
- TGI [50]: > 100 µM
- TGI [51]: 28.9 µM
- TGI [52]: > 100 µM
- TGI [11]: > 100 µM
- TGI [53]: > 100 µM
- TGI [54]: > 100 µM
- TGI [55]: > 100 µM
- TGI [64]: > 100 µM
- TGI [57]: > 100 µM
- TGI [13]: > 100 µM
- TGI [59]: > 100 µM
- TGI [60]: > 100 µM
- TGI [14]: > 100 µM

Structure (SMILES): O=S(=O)([O-])[O-].[Fe+2].c1ccc(/C(=N\Nc2ccccn2)c2ccccn2)cc1
- TGI [1]: 10.7 µM
- TGI [15]: 24.2 µM
- TGI [16]: 8.82 µM
- TGI [17]: 5.35 µM
- TGI [18]: 10.5 µM
- TGI [19]: 9.71 µM
- TGI [3]: 2.15 µM
- TGI [65]: 11.2 µM
- TGI [61]: 3.73 µM
- TGI [62]: 11.5 µM
- TGI [5]: 4.72 µM
- TGI [6]: 16.2 µM
- TGI [20]: 4.56 µM
- TGI [21]: 11.3 µM
- TGI [22]: 4.62 µM
- TGI [66]: 14.6 µM
- TGI [23]: 12 µM
- TGI [24]: 7.67 µM
- TGI [7]: 22.7 µM
- TGI [26]: 5.46 µM
- TGI [27]: 8.44 µM
- TGI [28]: 14.6 µM
- TGI [8]: 12.4 µM
- TGI [29]: 11.8 µM
- TGI [67]: 12.3 µM
- TGI [30]: 4.89 µM
- TGI [63]: 4.25 µM
- TGI [31]: 10.1 µM
- TGI [36]: 6.13 µM
- TGI [37]: 4.37 µM
- TGI [38]: 8.68 µM
- TGI [39]: 8.55 µM
- TGI [40]: 3.55 µM
- TGI [42]: 2.67 µM
- TGI [9]: 2.96 µM
- TGI [10]: 7.07 µM
- TGI [43]: 10.8 µM
- TGI [45]: 12.4 µM
- TGI [46]: 11.7 µM
- TGI [47]: 19.3 µM
- TGI [48]: 8.77 µM
- TGI [49]: 6.42 µM
- TGI [50]: 5.74 µM
- TGI [52]: 4.43 µM
- TGI [11]: 4.25 µM
- TGI [53]: 9.69 µM
- TGI [54]: 15.4 µM
- TGI [55]: 14.7 µM
- TGI [64]: 12.1 µM
- TGI [57]: 11.2 µM
- TGI [13]: 7.73 µM
- TGI [58]: 4.66 µM
- TGI [59]: 4.39 µM
- TGI [60]: 5.29 µM
- TGI [14]: 13.1 µM
